From PubChem BioAssay AID248 (DTP/NCI, 2004)
“And” between values parts separate entries of the source, which are not always exact repeats. Equal values may be shown once. Inconclusive results and toxic doses are left out. Cut-off read from the data, not from the text of the source: active = T/C of 150% or more; inactive = T/C below 125%.

Test system: L1210 leukemia ip in BDF1 mice, survival T/C
Assay: NCI In Vivo Anticancer Drug Screen. Data for tumor model L1210 Leukemia (intraperitoneal) in B6D2F1 (BDF1) mice
Settings: higher = longer survival
Outline: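 Tumor was transplanted into mice, which were then dosed with test compound or vehicle alone. Survival was recorded for each group, and the treated figure was expressed relative to the control figure.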

[1] = endpoint: mean survival time, dose: 100.0 mg/kg/injection, schedule: Q04DX003 (ip), vehicle: Klucel (hydroxypropylcellulose) (HPC)
[2] = endpoint: mean survival time, dose: 200.0 mg/kg/injection, schedule: Q04DX003 (ip), vehicle: Klucel (hydroxypropylcellulose) (HPC)
[3] = endpoint: mean survival time, dose: 400.0 mg/kg/injection, schedule: Q04DX003 (ip), vehicle: Klucel (hydroxypropylcellulose) (HPC)
[4] = endpoint: mean survival time, dose: 100.0 mg/kg/injection, schedule: Q01DX001 (ip), vehicle: carboxymethylcellulose (CMC)
[5] = endpoint: mean survival time, dose: 200.0 mg/kg/injection, schedule: Q01DX001 (ip), vehicle: carboxymethylcellulose (CMC)
[6] = endpoint: mean survival time, dose: 400.0 mg/kg/injection, schedule: Q01DX001 (ip), vehicle: carboxymethylcellulose (CMC)
[7] = endpoint: mean survival time, dose: 100.0 mg/kg/injection, schedule: Q04DX003 (ip), vehicle: saline
[8] = endpoint: mean survival time, dose: 200.0 mg/kg/injection, schedule: Q04DX003 (ip), vehicle: saline
[9] = endpoint: mean survival time, dose: 400.0 mg/kg/injection, schedule: Q04DX003 (ip), vehicle: saline
[10] = endpoint: mean survival time, dose: 50.0 mg/kg/injection, schedule: Q01DX009 (ip), vehicle: saline with Tween-80
[11] = endpoint: mean survival time, dose: 100.0 mg/kg/injection, schedule: Q01DX009 (ip), vehicle: saline with Tween-80
[12] = endpoint: mean survival time, dose: 200.0 mg/kg/injection, schedule: Q01DX009 (ip), vehicle: saline with Tween-80
[13] = endpoint: mean survival time, dose: 100.0 mg/kg/injection, schedule: Q04DX003 (ip), vehicle: saline with Tween-80
[14] = endpoint: mean survival time, dose: 400.0 mg/kg/injection, schedule: Q04DX003 (ip), vehicle: saline with Tween-80
[15] = endpoint: mean survival time, dose: 25.0 mg/kg/injection, schedule: Q04DX003 (ip), vehicle: saline with Tween-80
[16] = endpoint: mean survival time, dose: 50.0 mg/kg/injection, schedule: Q04DX003 (ip), vehicle: saline with Tween-80

Measured: T/C

CCC1=C(C[C@H]2NCCc3cc(OC)c(OC)cc32)C[C@H]2c3cc(OC)c(OC)cc3CCN2C1
inactive: endpoint: mean survival time, dose: 1.0 mg/kg/injection, schedule: Q01DX005 (ip), vehicle: saline 111 % of control | endpoint: mean survival time, dose: 1.0 mg/kg/injection, schedule: Q03HX024 (ip), vehicle: saline 111 % of control | endpoint: mean survival time, dose: 2.0 mg/kg/injection, schedule: Q01DX005 (ip), vehicle: saline 107 % of control and 108 % of control | endpoint: mean survival time, dose: 2.0 mg/kg/injection, schedule: Q01DX009 (ip), vehicle: saline 103 % of control | endpoint: mean survival time, dose: 2.0 mg/kg/injection, schedule: Q03HX016 (ip), vehicle: saline 111 % of control | endpoint: mean survival time, dose: 2.0 mg/kg/injection, schedule: Q04DX003 (ip), vehicle: saline 103 % of control and 104 % of control | endpoint: mean survival time, dose: 2.32 mg/kg/injection, schedule: Q01DX005 (ip), vehicle: saline 117 % of control | endpoint: mean survival time, dose: 4.0 mg/kg/injection, schedule: Q01DX005 (ip), vehicle: saline 119 % of control [middle of 4 runs] | endpoint: mean survival time, dose: 4.0 mg/kg/injection, schedule: Q01DX005 (sc), vehicle: saline 122 % of control | endpoint: mean survival time, dose: 4.0 mg/kg/injection, schedule: Q01DX009 (ip), vehicle: saline 103 % of control and 119 % of control | endpoint: mean survival time, dose: 4.0 mg/kg/injection, schedule: Q04DX003 (ip), vehicle: saline 107 % of control and 105 % of control and 108 % of control | endpoint: mean survival time, dose: 4.64 mg/kg/injection, schedule: Q01DX005 (ip), vehicle: saline 116 % of control | endpoint: mean survival time, dose: 4.64 mg/kg/injection, schedule: Q04DX003 (ip), vehicle: saline 106 % of control | endpoint: mean survival time, dose: 8.0 mg/kg/injection, schedule: Q01DX005 (oral), vehicle: saline 102 % of control | endpoint: mean survival time, dose: 8.0 mg/kg/injection, schedule: Q01DX005 (sc), vehicle: saline 119 % of control | endpoint: mean survival time, dose: 8.0 mg/kg/injection, schedule: Q01DX009 (ip), vehicle: saline 108 % of control | endpoint: mean survival time, dose: 8.0 mg/kg/injection, schedule: Q04DX003 (ip), vehicle: saline 111 % of control [middle of 4 runs] | endpoint: mean survival time, dose: 9.28 mg/kg/injection, schedule: Q04DX003 (ip), vehicle: saline 94 % of control | endpoint: mean survival time, dose: 16.0 mg/kg/injection, schedule: Q01DX005 (oral), vehicle: saline 116 % of control | endpoint: mean survival time, dose: 16.0 mg/kg/injection, schedule: Q01DX005 (sc), vehicle: saline 105 % of control | endpoint: mean survival time, dose: 16.0 mg/kg/injection, schedule: Q08DX002 (ip), vehicle: saline 120 % of control | endpoint: mean survival time, dose: 32.0 mg/kg/injection, schedule: Q01DX001 (sc), vehicle: saline 110 % of control | endpoint: mean survival time, dose: 37.12 mg/kg/injection, schedule: Q04DX003 (ip), vehicle: saline 108 % of control | endpoint: mean survival time, dose: 64.0 mg/kg/injection, schedule: Q01DX001 (sc), vehicle: saline 121 % of control | endpoint: mean survival time, dose: 64.0 mg/kg/injection, schedule: Q04DX003 (ip), vehicle: saline 102 % of control | endpoint: median survival time, dose: 4.0 mg/kg/injection, schedule: Q04DX003 (ip), vehicle: saline 102 % of control | endpoint: median survival time, dose: 8.0 mg/kg/injection, schedule: Q04DX003 (ip), vehicle: saline 107 % of control | endpoint: median survival time, dose: 16.0 mg/kg/injection, schedule: Q04DX003 (ip), vehicle: saline 110 % of control

CC(C)(CO)C(O)C(=O)NCCCCC1CCCCC1 (configuration not stated)
inactive: [1] 98 % of control | [2] 93 % of control | [3] 88 % of control

CCOC(OCC)C(=O)NNC(C)C
inactive: endpoint: mean survival time, dose: 25.0 mg/kg/injection, schedule: Q01DX009 (ip), vehicle: saline 95 % of control | endpoint: mean survival time, dose: 50.0 mg/kg/injection, schedule: Q01DX009 (ip), vehicle: saline 97 % of control | endpoint: mean survival time, dose: 100.0 mg/kg/injection, schedule: Q01DX009 (ip), vehicle: saline 108 % of control

CCN(CC)CCOC(=O)C(S)(c1ccccc1)c1ccccc1
inactive: endpoint: mean survival time, dose: 75.0 mg/kg/injection, schedule: Q01DX001 (ip), vehicle: other 100 % of control

NC(=S)N/N=C\c1csc2ccccc12
inactive: [4] 92 % of control | endpoint: mean survival time, dose: 100.0 mg/kg/injection, schedule: Q01DX001 (ip), vehicle: saline 96 % of control | [5] 92 % of control | endpoint: mean survival time, dose: 200.0 mg/kg/injection, schedule: Q01DX001 (ip), vehicle: saline 107 % of control | [6] 95 % of control | endpoint: mean survival time, dose: 400.0 mg/kg/injection, schedule: Q01DX001 (ip), vehicle: saline 94 % of control

Cc1ccc(N=Cc2cc(Cl)cc(Cl)c2OC(=O)c2ccccc2)cc1C
inactive: endpoint: mean survival time, dose: 100.0 mg/kg/injection, schedule: Q04DX002 (ip), vehicle: saline with Tween-80 95 % of control | endpoint: mean survival time, dose: 200.0 mg/kg/injection, schedule: Q04DX002 (ip), vehicle: saline with Tween-80 92 % of control | endpoint: mean survival time, dose: 400.0 mg/kg/injection, schedule: Q04DX002 (ip), vehicle: saline with Tween-80 88 % of control

COC(=O)c1c[nH]c2ccc(Br)cc12
inactive: [7] 108 % of control | [8] 92 % of control | [9] 89 % of control

O=C(O)C1=CC2(c3ccccc3)C(=O)C1(c1ccccc1)C1=C2c2cccc3cccc1c23 (configuration not stated)
inactive: [10] 93 % of control | [11] 93 % of control | [12] 93 % of control

Cc1ccc(S(=O)(=O)C2CCCCC2Cl)cc1 (configuration not stated)
inactive: [4] 109 % of control | [5] 102 % of control | [6] 98 % of control

O=S(=O)(NC1CCCC2C=CC=CC21)c1ccccc1 (configuration not stated)
inactive: [11] 96 % of control | [13] 93 % of control | [12] 102 % of control | endpoint: mean survival time, dose: 200.0 mg/kg/injection, schedule: Q04DX003 (ip), vehicle: saline with Tween-80 92 % of control | endpoint: mean survival time, dose: 400.0 mg/kg/injection, schedule: Q01DX009 (ip), vehicle: saline with Tween-80 88 % of control | [14] 95 % of control

CC1CCc2cc3c4ccccc4n(C)c3cc2C1 (configuration not stated)
inactive: endpoint: mean survival time, dose: 75.0 mg/kg/injection, schedule: Q01DX001 (ip), vehicle: carboxymethylcellulose (CMC) 107 % of control | endpoint: mean survival time, dose: 150.0 mg/kg/injection, schedule: Q01DX001 (ip), vehicle: carboxymethylcellulose (CMC) 109 % of control | endpoint: mean survival time, dose: 300.0 mg/kg/injection, schedule: Q01DX001 (ip), vehicle: carboxymethylcellulose (CMC) 109 % of control

C[Si](C)(C)Oc1cc(N=NNC2=CC(=O)c3ccccc3C2=O)c(O)c2ccccc12
inactive: endpoint: mean survival time, dose: 12.5 mg/kg/injection, schedule: Q04DX003 (ip), vehicle: saline with Tween-80 93 % of control | [15] 93 % of control | [16] 94 % of control | [14] 97 % of control

O=C(CC1(O)C(=O)Nc2ccc(Br)cc21)c1ccc2c(c1)OCO2 (configuration not stated)
inactive: endpoint: mean survival time, dose: 100.0 mg/kg/injection, schedule: Q04DX002 (ip), vehicle: Klucel (hydroxypropylcellulose) (HPC) 92 % of control | endpoint: mean survival time, dose: 200.0 mg/kg/injection, schedule: Q04DX002 (ip), vehicle: Klucel (hydroxypropylcellulose) (HPC) 104 % of control | endpoint: mean survival time, dose: 400.0 mg/kg/injection, schedule: Q04DX002 (ip), vehicle: Klucel (hydroxypropylcellulose) (HPC) 95 % of control

O=C(/C(=C\Cl)CBr)c1ccccc1
inactive: endpoint: mean survival time, dose: 12.5 mg/kg/injection, schedule: Q01DX009 (ip), vehicle: saline with Tween-80 88 % of control | endpoint: mean survival time, dose: 25.0 mg/kg/injection, schedule: Q01DX009 (ip), vehicle: saline with Tween-80 88 % of control | [15] 90 % of control | [10] 90 % of control | [16] 92 % of control | [13] 98 % of control

O=[N+]([O-])C1C=CCS1(=O)=O (configuration not stated)
inactive: [7] 95 % of control | [8] 96 % of control | [9] 86 % of control

O=C(Nc1ccc(Cl)c(Cl)c1)Oc1cccc(NC(=S)Nc2ccccc2)c1
inactive: endpoint: mean survival time, dose: 100.0 mg/kg/injection, schedule: Q01DX009 (ip), vehicle: Klucel (hydroxypropylcellulose) (HPC) 94 % of control | endpoint: mean survival time, dose: 200.0 mg/kg/injection, schedule: Q01DX009 (ip), vehicle: Klucel (hydroxypropylcellulose) (HPC) 94 % of control | endpoint: mean survival time, dose: 400.0 mg/kg/injection, schedule: Q01DX009 (ip), vehicle: Klucel (hydroxypropylcellulose) (HPC) 94 % of control

O=c1[nH]c2ccccc2c2ccc([N+](=O)[O-])cc12
inactive: [4] 95 % of control | [5] 106 % of control | [6] 93 % of control

O=C(O)c1ccc(B(O)O)cc1
inactive: [1] 103 % of control | [2] 103 % of control | [3] 93 % of control
